Data on three compounds can be found in patent US20230255219A1, “SLOW RELEASE COMPOSITE ACTIVE FILMS/PACKAGING TO REDUCE FOODBORNE PATHOGENS AND IMPROVE SHELF LIFE OF RAW AND READY TO EAT FOODS” (The Penn State Research Foundation, priority 2019, published 2023).

The conditions of data set [1]: cited from earlier work.
The test system of data set [2] is L. monocytogenes cocktail. Type of data set: cell-based, Listeria monocytogenes.
For data set [3], the system named is Salmonella spp. cocktail. The experiment in a line: Minimum bactericidal concentration (MBC), plating of wells on selective media. It counts as cell-based. As to the method:
(§1) A resazurin indicator-based, 96-well microplate dilution method (Elshikh et al., 2016) was used for in vitro determination of MIC and MBC of LAE, nisin and thymol against different foodborne pathogens. Overnight cultures were grown in TSB (37° C.) and a cocktail of STEC, Salmonella spp., L. monocytogenes and S. aureus was prepared by mixing equal volumes of the three corresponding strains to obtain approximately 8 log10 CFU/mL of the pathogens. Bacterial cells were washed by centrifugation at 8000 rpm/10 minutes, and cell pellets were re-suspended in the same volume of sterile Mueller Hinton Broth (MHB; Difco).
(§2) FIG. 1 illustrates the resazurin indicator-based, 96-well microplate dilution method for MIC determination of different antimicrobials against bacterial cocktails. A 100,000 IU/mL concentration of nisin (VWR) was dissolved in HCl 0.02N; 10% thymol (VWR) was prepared in concentrated ethanol; and 10% LAE (MB) was prepared in sterile distilled water. All antimicrobials were sterilized by filtration through a 0.22 μm filter (Pall; Ann Arbor, Mich.).). Each antimicrobial was diluted in sterile MHB to obtain a final concentration of 50,000 IU/mL of nisin, 5% thymol, and 5% LAE. Using a multi-channel pipette (Eppendorf; Haoppauge, N.Y.), one hundred μL of each antimicrobial in MHB was dispensed into a row in a 96-well microplate. Subsequent serial dilutions of the antimicrobials were made in MHB using the multi-channel pipette by transferring and mixing 50 μL of each compound to obtain antimicrobial concentrations of nisin (50,000-390.6 IU/mL), thymol (5-0.039%) and LAE (5-0.039%). Bacterial cocktails were diluted 1:100 in a sterile MHB to reach a concentration of approximately 6 log10 CFU/mL, with 50 μL of each cocktail added to the respective well. […]
(§3) The MBC was determined by directly inoculating the content of wells with concentrations higher than the MIC value on selective growth media. […] The MBC value was determined as the lowest concentration when there were no bacterial colonies observed (Elshikh et al., 2016).

For data set [4], the system named is Salmonella spp. cocktail. It counts as cell-based.
Data set [5] deals with STEC cocktail. It counts as cell-based.
Data set [6] concerns L. monocytogenes cocktail. The experiment in a line: Minimum bactericidal concentration (MBC), plating of wells on selective media. It counts as cell-based, Listeria monocytogenes. How it is done:
as §1, §2, §3

Data set [7] has as its system S. aureus cocktail. Described as above. Type of data set: cell-based, Staphylococcus aureus. As to the method:
as §1, §2, §3

Data set [8] relates to S. aureus cocktail. It counts as cell-based, Staphylococcus aureus.
Data set [9] concerns all tested bacterial pathogens (STEC, Salmonella spp., L. monocytogenes, S. aureus). It counts as cell-based.
In data set [10] the test system is STEC cocktail. Type of data set: cell-based. The source holds these as a separate data set.

Regarding `CCCCCCCCCCCC(=O)N[C@@H](CCCN=C(N)N)C(=O)OCC` [LAE, lauric arginate], the “metabolism of LAE in the human body” value in data set [1] was “rapidly metabolized in the human body to lauric acid and arginine”. Further, the “MIC, LAE” value (in data set [2] (24 h at 37° C.); with Salmonella spp. cocktail [4] (24 h at 37° C.); against STEC cocktail [5] (24 h at 37° C.); with S. aureus cocktail [8] (24 h at 37° C.)) was 0.078 % (V/V) each time. The “MBC, LAE” value was 0.625 % (V/V) with Salmonella spp. cocktail [3], 0.313 % (V/V) in data set [6] and 0.313 % (V/V) in the data set with S. aureus cocktail [7]. In data set [9], the “concentration of LAE that inhibited all tested bacterial pathogens” value came out at 0.078%.

Regarding nisin, the “MIC, Nisin” value is on record as “Nil (key: Nil indicates there was no growth inhibition, nor killing effect at ≤ 50,000 IU/mL)” in data set [2] (24 h at 37° C.); “Nil (key: Nil indicates there was no growth inhibition, nor killing effect at ≤ 50,000 IU/mL)” against Salmonella spp. cocktail [4] (24 h at 37° C.); “Nil (key: Nil indicates there was no growth inhibition, nor killing effect at ≤ 50,000 IU/mL)” with STEC cocktail [5] (24 h at 37° C.); “Nil (key: Nil indicates there was no growth inhibition, nor killing effect at ≤ 50,000 IU/mL)” with S. aureus cocktail [8] (24 h at 37° C.). Also, the “MBC, Nisin” value was “Nil (Nil indicates there was no growth inhibition, nor killing effect at ≤ 50,000 IU/mL)” in the data set on Salmonella spp. cocktail [3]; “Nil (Nil indicates there was no growth inhibition, nor killing effect at ≤ 50,000 IU/mL)” in data set [6]; “Nil (Nil indicates there was no growth inhibition, nor killing effect at ≤ 50,000 IU/mL)” in the data set on S. aureus cocktail [7]; “Nil (key: Nil indicates there was no growth inhibition, nor killing effect at ≤ 50,000 IU/mL)” with STEC cocktail [10]. In addition, the “antibacterial activity of nisin in MIC and MBC experiments” value in data set [9] is on record as “very poor antibacterial activity”.

With `Cc1ccc(C(C)C)c(O)c1` [Thymol, thymol], the “MIC, Thymol” value in data set [2] was 0.625 % (W/V); against Salmonella spp. cocktail [4] it was 0.625 % (W/V); against STEC cocktail [5] it was 1.25 % (W/V); with S. aureus cocktail [8], 0.156 % (W/V). Moreover, the “MBC, Thymol” value in the data set on Salmonella spp. cocktail [3] is recorded as 2.5 % (W/V); in data set [6], 1.25 % (W/V); in the data set on S. aureus cocktail [7], 1.25 % (W/V); in the data set on STEC cocktail [10], 2.5 % (W/V).
